Patent publication US7452904B2, “1-alkyl-1-azoniabicyclo' 2.2.2 octane carbamate derivatives and their use as muscarinic receptor antagonists” (Chiesi Farmaceutici S.p.A., priority 2001, dated 2008)
pKi: −log10 of the molar value.

What was measured:
human M2 receptors = target: T1, human M2 receptors (Homo sapiens, UniProt P08172); assay: Binding test to human M2 muscarinic receptor ([3H]-NMS displacement), reported as M2/M3 selectivity; details: ratio of Ki at cloned human M2 versus M3 receptors; ratios greater than 1 indicate M3 selective activity
T1 construct: expressed in transfected cells; host or cells: CHO-K1
T1 sequence (P08172 1-466): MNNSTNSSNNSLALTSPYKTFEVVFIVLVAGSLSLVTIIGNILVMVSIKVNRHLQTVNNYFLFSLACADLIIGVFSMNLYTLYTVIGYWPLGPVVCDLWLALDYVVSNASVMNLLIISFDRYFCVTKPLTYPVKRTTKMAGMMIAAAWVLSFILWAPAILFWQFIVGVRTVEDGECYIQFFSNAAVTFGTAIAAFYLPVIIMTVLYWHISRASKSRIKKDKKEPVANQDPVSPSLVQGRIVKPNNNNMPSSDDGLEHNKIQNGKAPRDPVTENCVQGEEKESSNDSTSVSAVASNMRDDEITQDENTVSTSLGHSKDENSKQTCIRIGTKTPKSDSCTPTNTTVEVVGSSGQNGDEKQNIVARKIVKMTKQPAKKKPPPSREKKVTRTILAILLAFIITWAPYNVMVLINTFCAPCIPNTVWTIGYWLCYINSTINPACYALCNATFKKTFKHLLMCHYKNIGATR
Procedure: (§1) Binding Test to Human M2 and M3 Muscarinic Receptors
(§2) Membranes from CHO—K1 cells transfected with human M2 or M3 receptors were used. The summarised experimental procedure for both receptors was the following: cell membranes (15-20 μg) were incubated with [^3H]-NMS (0.3-0.5 nM) for 60 min at 25° C., in presence or absence of the antagonists. Incubation was carried out in 96 wells polystyrene microplates in a total incubation volume of 0.2 mL of PBS pH 7.4. Non specific binding was determined in parallel assays in presence of atropine (5 μM). Samples were filtered through type GF/C glass fibre, preincubated with PEI 0.3%. Filters were washed 3-4 times with 50 mM Tris-HCl, 0.9% NaCl, pH 7.4 at 4° C., and dried at 50° C. for 45 min. Filter bound radioactivity was quantified by liquid scintillation counting.
(§3) For the calculation of the inhibition constant (Ki), displacement curves were analysed by non-linear regression (GraphPad Prism). Dissociation constant (Kd) of [^3H]-NMS for each receptor was obtained through the saturation curves obtained in the same conditions as the experiments carried out with the corresponding antagonists.

human M3 receptors = target: T2, human M3 receptors (Homo sapiens, UniProt P20309); assay: Binding test to human M3 muscarinic receptor ([3H]-NMS displacement); details: membranes from CHO-K1 cells transfected with human M3 receptor; [3H]-NMS 0.3-0.5 nM, 60 min, 25° C.; mean of two independent experiments, each in duplicate
T2 construct: expressed in transfected cells; host or cells: CHO-K1
Procedure: as §1, §2, §3

T2 sequence (P20309 whole entry): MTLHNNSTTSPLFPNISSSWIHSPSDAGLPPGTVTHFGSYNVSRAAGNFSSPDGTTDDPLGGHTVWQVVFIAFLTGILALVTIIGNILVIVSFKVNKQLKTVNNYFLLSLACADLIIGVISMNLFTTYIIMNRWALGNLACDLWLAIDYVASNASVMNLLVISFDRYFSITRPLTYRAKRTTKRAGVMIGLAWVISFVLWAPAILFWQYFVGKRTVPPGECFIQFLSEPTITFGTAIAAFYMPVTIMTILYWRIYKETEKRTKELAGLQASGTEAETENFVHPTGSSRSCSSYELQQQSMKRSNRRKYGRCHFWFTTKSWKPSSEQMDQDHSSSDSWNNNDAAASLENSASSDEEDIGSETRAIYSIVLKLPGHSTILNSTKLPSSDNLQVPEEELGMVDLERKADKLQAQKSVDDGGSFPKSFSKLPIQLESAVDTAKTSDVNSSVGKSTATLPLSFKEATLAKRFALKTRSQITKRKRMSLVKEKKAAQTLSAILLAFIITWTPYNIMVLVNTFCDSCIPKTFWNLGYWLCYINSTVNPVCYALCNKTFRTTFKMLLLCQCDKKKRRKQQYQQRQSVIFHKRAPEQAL

With `O=C(O[C@H]1C[N+]2(CCCOc3ccccc3)CCC1CC2)N(Cc1ccc(F)cc1)c1ccccc1.[Br-]` [Ex. 11, (R)-3-[(4-Fluorobenzyl)phenylcarbamoyloxy]-1-(3-phenoxypropyl)-1-azoniabicyclo[2.2.2]octane; bromide] the “M2/M3 (ratio)” value (human M2 receptors) was 80 ratio and the pKi (human M3 receptors) was 9.47.
With `O=C(O[C@H]1C[N+]2(CCSc3ccccc3)CCC1CC2)N(Cc1cc(F)c(F)c(F)c1)c1ccccc1F.[Cl-]` [Ex. 50, (R)-3-[(2-Fluorophenyl)-(3,4,5-trifluorobenzyl)carbamoyloxy]-1-(2-phenylsulfanylethyl)-1-azoniabicyclo[2.2.2]octane; chloride] the “M2/M3 (ratio)” value (human M2 receptors) was 345 ratio and the pKi (human M3 receptors) was 10.22.
In the case of `O=C(C[N+]12CCC(CC1)[C@@H](OC(=O)N(Cc1ccsc1)c1cccc(F)c1)C2)c1ccccc1.[Br-]` [Ex. 69, (R)-3-[(3-Fluorophenyl)thiophen-3-ylmethylcarbamoyloxy]-1(2-oxo-2-phenylethyl)-1-azoniabicyclo[2.2.2]octane; bromide], the “M2/M3 (ratio)” value (human M2 receptors) was 32 ratio and the pKi (human M3 receptors) was 10.70.
With `Cl.O=C(O[C@H]1CN2CCC1CC2)N(Cc1ccc(Cl)s1)c1cccc(F)c1` [Int. 29, (R)-(5-Chlorothiophen-2-ylmethyl)-(3-fluorophenyl)carbamic acid 1-azabicyclo[2.2.2]oct-3-yl ester; hydrochloride] the “M2/M3 (ratio)” value (human M2 receptors) was 105 ratio and the pKi (human M3 receptors) was 10.70.
In the case of `Cc1cccc(N(Cc2ccsc2)C(=O)O[C@H]2CN3CCC2CC3)c1.Cl` [Int. 32, (R)-Thiophen-3-ylmethyl-m-tolylcarbamic acid 1-azabicyclo[2.2.2]oct-3-yl ester; hydrochloride], the “M2/M3 (ratio)” value (human M2 receptors) was 23 ratio and the pKi (human M3 receptors) was 9.82.
With `O=C(O[C@H]1CN2CCC1CC2)N1CCc2ccccc2[C@@H]1c1ccccc1` [SOLIFENACIN, solifenacin, reference compound] the “M2/M3 (ratio)” value (human M2 receptors) was 10 ratio and the pKi (human M3 receptors) was 8.08.
